{
  "source": "patent US6455588B1",
  "about": "“Compositions including modafinil for treatment of eating disorders and for appetite stimulation” (Cephalon, Inc., priority 1999, dated 2002)",
  "key": {"[1]": {"system": "orexin neurons", "assay": "Double immunostaining for orexin and Fos, cell counts in the perifornical region of modafinil-treated mice", "format": "in vivo", "conditions": "wild-type mice, 150 mg/kg i.p., 2 hours", "description": "To determine that modafinil might act through orexin neurons, wild-type mice were injected at noon with modafinil (150 mg/kg i.p.), or vehicle, and sacrificed 2 hours later. Brains were removed, double immunostained for orexin and Fos (an indicator of neuronal activity), and cells were counted in the periforllical region. The number of orexin-immunoreactive neurons was the same in both groups (44-47 cells/section), but the modafinil-treated group had over three times as many Fos-immunoreactive neuronal nuclei (38 in the modafinil-treated mice vs. 11 in the vehicle controls; p=0.01). Within the population of orexin-immunoreactive neurons, modafinil induced a 9-fold increase in the number of Fos-immunoreactive cells (64% double labeled neurons in the modafinil group vs. 7% in the vehicle group, p=0.01) (FIG. 1). Thus, in the lateral hypothalamus, modafinil treatment is associated with activation of orexin neurons, and is thus useful as a treatment for eating disorders or for increasing appetite."}, "[2]": {"system": "neurons of the TMN and VLPO of the hypothalamus", "assay": "Neuronal activity in hypothalamic nuclei (TMN, VLPO) after modafinil administration", "format": "in vivo, rats", "description": "Activation of this histaminergic pathway by modafinil results in cortical activation and wakefulness. Thus, it appears that the physiologic basis for the wake-promoting actions of modafinil involves disinhibition of histaminergic neurons of the TMN by inhibitory actions on the VLPO. This represents the first pharmacologic agent known to produce wakefulness by activation of the TMN."}, "[3]": {"conditions": "400 mg/day, clinical trials; cited from earlier work"}},
  "data": [
    {"smiles": "NC(=O)C[S+]([O-])C(c1ccccc1)c1ccccc1", "note": "(stereo not drawn) [modafinil, 2-(benzhydrylsulfinyl) acetamide]", "values": [
      {"measurement": "Fos-immunoreactive neuronal nuclei", "setting": "[1]; perifornical region, vehicle 11, p=0.01", "value": 38},
      {"measurement": "double labeled (orexin/Fos) neurons within orexin-immunoreactive neurons", "setting": "[1]; vehicle 7%, p=0.01", "value": 64, "unit": "%"},
      {"measurement": "increase in the number of Fos-immunoreactive cells within orexin-immunoreactive neurons", "setting": "[1]; versus vehicle", "value": 9, "unit": "fold"},
      {"measurement": "activity of the neurons in the ventrolateropreoptic area (VLPO) of the hypothalamus", "setting": "[2]; rats", "value": "reduced the activity"},
      {"measurement": "activity in the TMN of the posterior hypothalamus", "setting": "[2]; wakefulness-promoting doses", "value": "stimulation of activity"},
      {"measurement": "tolerability", "setting": "[3]", "value": "well tolerated"}
    ]}
  ]
}
